Measurements: patent US4678666A, “Topical anti-inflammatory compositions” (Pfizer Inc., priority 1982, dated 1987)
Entries after “also recorded” stand apart in the source; their conditions may differ. Like-named read-outs stand apart in the source and are kept apart here.

Experiments:
[1] = Solubility of Piroxicam with solubilizers; format: physicochemical
Description: This invention employs a solubilizing agent to dissolve piroxicam in bases for formulation; the piroxicam-solubilizing agent is selected from the class of alkanolamines. […] The monoalkanolamines have from one to four carbon atoms and include methanolamine, ethanolamine, propanolamine and butanolamine. The dialkanolamines have from two to eight carbon atoms and include dimethanolamine, diethanolamine, dipropanolamine and dibutanolamine. The trialkanolamines have from three to twelve carbon atoms and include trimethanolamine, triethanolamine, tripropanolamine and tributanolamine.

[2] = test system: carragenin-induced foot edema; assay: Carragenin-induced rat foot edema test; format: in vivo; conditions: oral administration, 1 mg./kg.
Method: The anti-inflammatory activity of the compositions of this invention was determined using the standard carragenin-induced rat foot edema test. [C. A. Winter et al., Proceedings of the Society for Experimental Biology and Medicine, Vol. 111, p. 544 (1962)]. Piroxicam ointment (1%), prepared according to Example 10, was administered topically at a dose level of 100 mg. per rat. The results obtained are presented in the table below (Table 6) in terms of the percent inhibition of edema formation, as compared to the non-drug treated control and the oral administration of piroxicam (1 mg./kg.): […]

[3] = words, background; cited from earlier work
[4] = At a higher pH than 9.0; cited from earlier work
[5] = cited from earlier work

Compound	Solubility of Piroxicam ([1]; Ammonia 10%, solvent: water) [mg/g]	Solubility of Piroxicam ([1]; Control (none), no solubilizer, solvent: water) [mg/g]	Solubility of Piroxicam ([1]; Di-isopropanolamine 10%, solvent: water) [mg/g]	Solubility of Piroxicam ([1]; Di-isopropyl adipate 10%, solvent: 1:1 water-ethanol) [mg/g]	Solubility of Piroxicam ([1]; Diethanolamine 10%, solvent: water) [mg/g]	Solubility of Piroxicam ([1]; Diethyl sebacate 10%, solvent: 1:1 water-ethanol) [mg/g]	Solubility of Piroxicam ([1]; Ethanolamine 10%, solvent: water) [mg/g]	Solubility of Piroxicam ([1]; Isopropyl myristate 10%, solvent: 1:1 water-ethanol) [mg/g]	Solubility of Piroxicam ([1]; N-Ethyl-o-crotonotoluidide 10%, solvent: 1:1 water-ethanol) [mg/g]	% Inhibition of edema [2] [%]	Liposolubility [3]	Solubility in water [3]	Chemical stability [4]	Absorption through skin ([5]; compounded in suspension with conventional bases for ointment or cream)	Absorption through skin ([5]; tincture, dissolved in an alcoholic solvent such as ethanol)	Solubility relative to piroxicam [3]
CN1C(C(=O)Nc2ccccn2)=C(O)c2ccccc2S1(=O)=O [Piroxicam, N-(2-pyridyl)-2-methyl-4-hydroxy-2H-1,2-benzothiazine-3-carboxamide 1,1-dioxide]	60.0	0.01	195	1.2	204	2.0	392	0.4	1.8	39.6	not liposoluble	sparingly soluble in water; also recorded: sparingly soluble in water or any other solvent	chemically unstable and may even decompose or deteriorate in quality	poorly absorbed through skin	will not be absorbed through the skin	
CN1C(C(=O)Nc2ccccn2)=C(O)c2ccccc2S1(=O)=O [hydrate]																less soluble than piroxicam itself
